Article PMC5218480 (PLoS ONE, 2017)

Tested on: MV-4-11 cells
Assay: Gene expression microarray analysis (Affymetrix PrimeView) and GSEA
Assay type: cell-based, human
Parameters: RFU PODN (11730768_x_at) / Fold change /veh PODN (11730768_x_at) / RFU LINC00158 (11744669_a_at) / Fold change /veh LINC00158 (11744669_a_at) / RFU DUSP10 (11751237_a_at) / Fold change /veh DUSP10 (11751237_a_at) / RFU ID3 (11757404_x_at) / Fold change /veh ID3 (11757404_x_at) / RFU PLEKHG5 (11737974_s_at) / Fold change /veh PLEKHG5 (11737974_s_at) / RFU LRRC4B (11730491_at) / Fold change /veh LRRC4B (11730491_at) / RFU GIMAP4 (11747438_a_at) / Fold change /veh GIMAP4 (11747438_a_at) / RFU KRT8 (11758183_x_at) / Fold change /veh KRT8 (11758183_x_at) / RFU CNN1 (11734310_a_at) / Fold change /veh CNN1 (11734310_a_at) / RFU VPS37D (11726825_at) / Fold change /veh VPS37D (11726825_at) / RFU C10orf10 (11716522_x_at) / Fold change /veh C10orf10 (11716522_x_at) / RFU KIR2DL2 /// KIR2DL4 /// KIR2DL5A /// KIR2DL5B /// KIR2DS1 /// KIR2DS2 /// KIR2DS3 /// KIR2DS4 /// KIR3DL3 /// KIR3DL3 /// KIR3DS1 (11738374_at) / Fold change /veh KIR2DL2 /// KIR2DL4 /// KIR2DL5A /// KIR2DL5B /// KIR2DS1 /// KIR2DS2 /// KIR2DS3 /// KIR2DS4 /// KIR3DL3 /// KIR3DL3 /// KIR3DS1 (11738374_at) / RFU C1QL1 (11718748_at) / Fold change /veh C1QL1 (11718748_at) / RFU TMPRSS4 (11747572_a_at) / Fold change /veh TMPRSS4 (11747572_a_at) / RFU HAMP (11756126_x_at) / Fold change /veh HAMP (11756126_x_at) / RFU RNFT2 (11725882_a_at) / Fold change /veh RNFT2 (11725882_a_at) / RFU NR4A2 (11747474_a_at) / Fold change /veh NR4A2 (11747474_a_at) / RFU ABCC12 (11746883_a_at) / Fold change /veh ABCC12 (11746883_a_at) / RFU TMEM136 (11760407_x_at) / Fold change /veh TMEM136 (11760407_x_at) / RFU CLDN22 /// WWC2 (11732394_at) / Fold change /veh CLDN22 /// WWC2 (11732394_at) / RFU HLA-DPB1 (11760878_x_at) / Fold change /veh HLA-DPB1 (11760878_x_at) / RFU SPINT1 (11716480_a_at) / Fold change /veh SPINT1 (11716480_a_at) / RFU GAP43 (11754022_s_at) / Fold change /veh GAP43 (11754022_s_at) / RFU A4GNT (11735810_at) / Fold change /veh A4GNT (11735810_at) / RFU PRB3 (11715151_x_at) / Fold change /veh PRB3 (11715151_x_at) / RFU TUBB4B (11761932_at) / Fold change /veh TUBB4B (11761932_at) / RFU CAPN14 (11732068_a_at) / Fold change /veh CAPN14 (11732068_a_at) / RFU TMCC2 (11721928_a_at) / Fold change /veh TMCC2 (11721928_a_at) / RFU IRGQ (11745062_a_at) / Fold change /veh IRGQ (11745062_a_at) / RFU FAM174B (11720279_a_at) / Fold change /veh FAM174B (11720279_a_at) / RFU TMPRSS4 (11748680_a_at) / Fold change /veh TMPRSS4 (11748680_a_at) / RFU FAM212B (11763350_a_at) / Fold change /veh FAM212B (11763350_a_at) / RFU PLEKHG5 (11743358_a_at) / Fold change /veh PLEKHG5 (11743358_a_at) / RFU ZSCAN30 (11745921_a_at) / Fold change /veh ZSCAN30 (11745921_a_at) / RFU CMKLR1 (11741424_a_at) / Fold change /veh CMKLR1 (11741424_a_at) / RFU LOC101060620 /// MAPK8IP1 (11723275_at) / Fold change /veh LOC101060620 /// MAPK8IP1 (11723275_at) / RFU SPTSSB (11747773_x_at) / Fold change /veh SPTSSB (11747773_x_at) / RFU PRSS12 (11739890_at) / Fold change /veh PRSS12 (11739890_at) / RFU BIN1 (11741810_x_at) / Fold change /veh BIN1 (11741810_x_at) / RFU WNT11 (11732464_a_at) / Fold change /veh WNT11 (11732464_a_at) / RFU C10orf10 (11716521_a_at) / Fold change /veh C10orf10 (11716521_a_at) / RFU C5orf56 (11738089_at) / Fold change /veh C5orf56 (11738089_at) / RFU CYB561 (11721691_x_at) / Fold change /veh CYB561 (11721691_x_at) / RFU ANKRD19P (11752326_a_at) / Fold change /veh ANKRD19P (11752326_a_at) / RFU OR2T12 /// OR2T33 /// OR2T8 (11738714_s_at) / Fold change /veh OR2T12 /// OR2T33 /// OR2T8 (11738714_s_at) / RFU VCAN (11748164_a_at) / Fold change /veh VCAN (11748164_a_at) / RFU JSRP1 (11732532_at) / Fold change /veh JSRP1 (11732532_at) / RFU KRTAP10-11 (11738290_x_at) / Fold change /veh KRTAP10-11 (11738290_x_at) / RFU MYO3A (11730013_a_at) / Fold change /veh MYO3A (11730013_a_at) / RFU EBF3 (11725865_a_at) / Fold change /veh EBF3 (11725865_a_at) / RFU CAMK2N1 (11719241_x_at) / Fold change /veh CAMK2N1 (11719241_x_at) / RFU C5orf56 (11738088_a_at) / Fold change /veh C5orf56 (11738088_a_at) / RFU OLFML3 (11715873_a_at) / Fold change /veh OLFML3 (11715873_a_at) / RFU LOC100653217 /// NTM (11731650_a_at) / Fold change /veh LOC100653217 /// NTM (11731650_a_at) / RFU MAPK11 (11762145_a_at) / Fold change /veh MAPK11 (11762145_a_at) / RFU FIZ1 (11724087_x_at) / Fold change /veh FIZ1 (11724087_x_at) / RFU OASL (11726364_x_at) / Fold change /veh OASL (11726364_x_at) / RFU SOX15 (11748057_x_at) / Fold change /veh SOX15 (11748057_x_at) / RFU CD79A (11719716_a_at) / Fold change /veh CD79A (11719716_a_at) / RFU HIST1H1D (11736915_at) / Fold change /veh HIST1H1D (11736915_at) / RFU CASKIN2 (11723855_a_at) / Fold change /veh CASKIN2 (11723855_a_at) / RFU LOC730098 (11760151_x_at) / Fold change /veh LOC730098 (11760151_x_at) / RFU OR4N2 (11742367_at) / Fold change /veh OR4N2 (11742367_at) / RFU PRRT2 (11749266_a_at) / Fold change /veh PRRT2 (11749266_a_at) / RFU SNX32 (11753110_a_at) / Fold change /veh SNX32 (11753110_a_at) / RFU CDHR5 (11726645_a_at) / Fold change /veh CDHR5 (11726645_a_at) / RFU RCAN1 (11760418_a_at) / Fold change /veh RCAN1 (11760418_a_at) / RFU FAM167A (11723789_a_at) / Fold change /veh FAM167A (11723789_a_at) / RFU FAM26E (11764081_at) / Fold change /veh FAM26E (11764081_at) / RFU ISYNA1 (11749810_s_at) / Fold change /veh ISYNA1 (11749810_s_at) / RFU ACY1 (11761880_at) / Fold change /veh ACY1 (11761880_at) / RFU 11764098_at / Fold change /veh 11764098_at / RFU SAMD14 (11745864_x_at) / Fold change /veh SAMD14 (11745864_x_at) / RFU NPB (11741838_a_at) / Fold change /veh NPB (11741838_a_at) / RFU TMPRSS6 (11731388_a_at) / Fold change /veh TMPRSS6 (11731388_a_at) / RFU KRTAP10-2 (11738614_at) / Fold change /veh KRTAP10-2 (11738614_at) / RFU ARHGAP8 /// PRR5-ARHGAP8 (11727945_x_at) / Fold change /veh ARHGAP8 /// PRR5-ARHGAP8 (11727945_x_at) / RFU KRTAP5-7 /// NADSYN1 (11734609_at) / Fold change /veh KRTAP5-7 /// NADSYN1 (11734609_at) / RFU RASL12 (11751679_a_at) / Fold change /veh RASL12 (11751679_a_at) / RFU CDKN2B (11736163_a_at) / Fold change /veh CDKN2B (11736163_a_at) / RFU PRF1 (11729649_at) / Fold change /veh PRF1 (11729649_at) / RFU, ZNF638 /// ZNF638-IT1 / Fold change vs veh, ZNF638 /// ZNF638-IT1 / RFU, PANK3 / Fold change vs veh, PANK3 / RFU, SH3YL1 / Fold change vs veh, SH3YL1 / RFU, ZEB2 / Fold change vs veh, ZEB2 / RFU, NRIP1 / Fold change vs veh, NRIP1 / RFU, PTTG1IP / Fold change vs veh, PTTG1IP / RFU, CAPN2 / Fold change vs veh, CAPN2 / RFU, MED14 / Fold change vs veh, MED14 / RFU, SNORA58 / Fold change vs veh, SNORA58 / RFU, C1orf63 / Fold change vs veh, C1orf63 / RFU, LRRFIP1 / Fold change vs veh, LRRFIP1 / RFU, NDUFAF7 / Fold change vs veh, NDUFAF7 / RFU, SLC12A2 / Fold change vs veh, SLC12A2 / RFU, IBTK / Fold change vs veh, IBTK / RFU, ESF1 / Fold change vs veh, ESF1 / Fold change vs veh, TMEM50B / RFU, TAOK1 / Fold change vs veh, TAOK1 / RFU, ACBD3 / Fold change vs veh, ACBD3 / RFU, TMA16 / Fold change vs veh, TMA16 / RFU, RWDD3 / Fold change vs veh, RWDD3 / RFU, BCAT1 / Fold change vs veh, BCAT1 / RFU, EDEM3 / Fold change vs veh, EDEM3 / RFU, TMEM33 / Fold change vs veh, TMEM33 / RFU, WDR75 / Fold change vs veh, WDR75 / RFU, AHCTF1 / Fold change vs veh, AHCTF1 / RFU, TFRC / Fold change vs veh, TFRC / RFU, ZDHHC17 / Fold change vs veh, ZDHHC17 / RFU, NOM1 / Fold change vs veh, NOM1 / RFU, ARL8B / Fold change vs veh, ARL8B / RFU, ZBTB11 / Fold change vs veh, ZBTB11 / RFU, TAMM41 / Fold change vs veh, TAMM41 / RFU, KIAA1704 /// LOC100996395 / Fold change vs veh, KIAA1704 /// LOC100996395 / RFU, ING1 / Fold change vs veh, ING1 / RFU, TRMT61B / Fold change vs veh, TRMT61B / RFU, FUBP3 / Fold change vs veh, FUBP3 / RFU, TP53 / Fold change vs veh, TP53 / RFU, TNKS2 / Fold change vs veh, TNKS2 / RFU, ZFP14 / Fold change vs veh, ZFP14 / RFU, ACTR2 / Fold change vs veh, ACTR2 / RFU, PPP3R1 / Fold change vs veh, PPP3R1 / RFU, PIK3R1 / Fold change vs veh, PIK3R1 / RFU, HNRNPA1 / Fold change vs veh, HNRNPA1 / RFU, RNF170 / Fold change vs veh, RNF170 / RFU, ZNF28 / Fold change vs veh, ZNF28 / RFU, RNGTT / Fold change vs veh, RNGTT / RFU, OGT / Fold change vs veh, OGT / RFU, BRD1 / Fold change vs veh, BRD1 / RFU, MARS / Fold change vs veh, MARS / RFU, ZNF655 / Fold change vs veh, ZNF655 / RFU, FAHD1 / Fold change vs veh, FAHD1 / RFU, BDP1 / Fold change vs veh, BDP1 / RFU, LRRCC1 / Fold change vs veh, LRRCC1 / RFU, ARID1A / Fold change vs veh, ARID1A / RFU, ZNF146 / Fold change vs veh, ZNF146 / RFU, ZNF330 / Fold change vs veh, ZNF330 / RFU, GPN3 / Fold change vs veh, GPN3 / RFU, C9orf123 / Fold change vs veh, C9orf123 / RFU, N4BP2L2 / Fold change vs veh, N4BP2L2 / RFU, ARFIP1 / Fold change vs veh, ARFIP1 / RFU, FAM179B / Fold change vs veh, FAM179B / RFU, BCL10 / Fold change vs veh, BCL10 / RFU, UHRF1BP1L / Fold change vs veh, UHRF1BP1L / RFU, BET1 / Fold change vs veh, BET1 / RFU, CNOT2 / Fold change vs veh, CNOT2 / RFU, ZNF268 / Fold change vs veh, ZNF268 / Fold change vs veh, ZNF507 / RFU, DGCR2 / Fold change vs veh, DGCR2 / RFU, WDSUB1 / Fold change vs veh, WDSUB1 / Fold change vs veh, HSP90B1 /// MIR3652 / RFU, ADSS / Fold change vs veh, ADSS / RFU, GK / Fold change vs veh, GK / RFU, ZNF148 / Fold change vs veh, ZNF148 / RFU, TAF9 / Fold change vs veh, TAF9 / RFU, SLC1A5 / Fold change vs veh, SLC1A5 / RFU, SLMO2 / Fold change vs veh, SLMO2 / RFU, ABCC4 / Fold change vs veh, ABCC4 / RFU, LOC101060439 /// RAP1B / Fold change vs veh, LOC101060439 /// RAP1B / RFU, RFX7 / Fold change vs veh, RFX7 / RFU, GTPBP10 / Fold change vs veh, GTPBP10 / RFU, CNEP1R1 / Fold change vs veh, CNEP1R1 / RFU, BIVM-ERCC5 /// ERCC5 / Fold change vs veh, BIVM-ERCC5 /// ERCC5 / RFU, ILF3 / Fold change vs veh, ILF3 / RFU 11762660_at / Fold change /veh 11762660_at / RFU VCAN (11757783_s_at) / Fold change /veh VCAN (11757783_s_at) / RFU DDX43 (11728927_at) / Fold change /veh DDX43 (11728927_at) / RFU KRT8 (11758188_x_at) / Fold change /veh KRT8 (11758188_x_at) / RFU NKD1 (11759106_at) / Fold change /veh NKD1 (11759106_at) / RFU SRD5A1 (11742802_a_at) / Fold change /veh SRD5A1 (11742802_a_at) / RFU TPSAB1 /// TPSB2 (11721975_s_at) / Fold change /veh TPSAB1 /// TPSB2 (11721975_s_at) / RFU GSTM3 (11746129_a_at) / Fold change /veh GSTM3 (11746129_a_at) / RFU IL23R (11737362_x_at) / Fold change /veh IL23R (11737362_x_at) / RFU TMEM51 (11727254_a_at) / Fold change /veh TMEM51 (11727254_a_at) / RFU PIWIL2 (11732686_x_at) / Fold change /veh PIWIL2 (11732686_x_at) / RFU ORM1 (11744905_x_at) / Fold change /veh ORM1 (11744905_x_at) / RFU CCDC152 (11743942_at) / Fold change /veh CCDC152 (11743942_at) / RFU ECM1 (11717891_a_at) / Fold change /veh ECM1 (11717891_a_at) / RFU IL23R (11748794_a_at) / Fold change /veh IL23R (11748794_a_at) / RFU TNFAIP8L3 (11732012_x_at) / Fold change /veh TNFAIP8L3 (11732012_x_at) / RFU MBOAT4 (11741988_at) / Fold change /veh MBOAT4 (11741988_at) / RFU 11764193_at / Fold change /veh 11764193_at / RFU TMEM53 (11763286_at) / Fold change /veh TMEM53 (11763286_at) / RFU MAGEB2 (11727129_at) / Fold change /veh MAGEB2 (11727129_at) / RFU TMEM200A (11744735_a_at) / Fold change /veh TMEM200A (11744735_a_at) / RFU CCDC152 (11751479_a_at) / Fold change /veh CCDC152 (11751479_a_at) / RFU FAM211A (11726209_a_at) / Fold change /veh FAM211A (11726209_a_at) / RFU RGS16 (11746705_a_at) / Fold change /veh RGS16 (11746705_a_at) / RFU VCAN (11755009_s_at) / Fold change /veh VCAN (11755009_s_at) / RFU RHOB (11743442_s_at) / Fold change /veh RHOB (11743442_s_at) / RFU RGS16 (11720943_a_at) / Fold change /veh RGS16 (11720943_a_at) / RFU RGS16 (11720944_at) / Fold change /veh RGS16 (11720944_at) / RFU, VPS4B / Fold change vs veh, VPS4B / RFU, CREB1 / Fold change vs veh, CREB1 / RFU, DNAJC13 / Fold change vs veh, DNAJC13 / RFU, GNAQ / Fold change vs veh, GNAQ / RFU, CDK5R1 / Fold change vs veh, CDK5R1 / RFU, ZRANB3 / Fold change vs veh, ZRANB3 / RFU, CUL4A / Fold change vs veh, CUL4A / RFU, CCNY / Fold change vs veh, CCNY / RFU, UFL1 / Fold change vs veh, UFL1 / RFU, COG3 / Fold change vs veh, COG3 / RFU, DIAPH2 / Fold change vs veh, DIAPH2 / RFU, SKA2 / Fold change vs veh, SKA2 / RFU, AFF3 / Fold change vs veh, AFF3 / RFU, LMF1 / Fold change vs veh, LMF1 / RFU, IPO11 / Fold change vs veh, IPO11 / RFU, DFFB / Fold change vs veh, DFFB / RFU, FOXP1 / Fold change vs veh, FOXP1 / RFU, CARD8 / Fold change vs veh, CARD8 / RFU, STRN3 / Fold change vs veh, STRN3 / RFU, ADK / Fold change vs veh, ADK / RFU, RASSF2 / Fold change vs veh, RASSF2 / RFU, WIPF1 / Fold change vs veh, WIPF1 / RFU, LARP1B / Fold change vs veh, LARP1B / RFU, RASA1 / Fold change vs veh, RASA1 / RFU, RB1 / Fold change vs veh, RB1 / RFU, PPFIA1 / Fold change vs veh, PPFIA1 / RFU, MAT2A / Fold change vs veh, MAT2A / RFU, CCT5 / Fold change vs veh, CCT5 / RFU, WDR92 / Fold change vs veh, WDR92 / RFU, CUX1 / Fold change vs veh, CUX1 / RFU, TTC7A / Fold change vs veh, TTC7A / RFU, TMEM135 / Fold change vs veh, TMEM135 / RFU, DEPTOR / Fold change vs veh, DEPTOR / RFU, CPM / Fold change vs veh, CPM / RFU, DNAJB6 / Fold change vs veh, DNAJB6 / RFU, CACNA2D3 / Fold change vs veh, CACNA2D3 / RFU, DTX4 / Fold change vs veh, DTX4 / RFU, TFCP2 / Fold change vs veh, TFCP2 / RFU, GMCL1 /// GMCL1P1 / Fold change vs veh, GMCL1 /// GMCL1P1 / RFU, AEBP2 / Fold change vs veh, AEBP2 / RFU, SNHG1 /// SNORD22 /// SNORD25 /// SNORD26 /// SNORD27 /// SNORD28 /// SNORD29 /// SNORD31 / Fold change vs veh, SNHG1 /// SNORD22 /// SNORD25 /// SNORD26 /// SNORD27 /// SNORD28 /// SNORD29 /// SNORD31 / Fold change (Aza/veh), C12orf56 (ProbeSet 11735607_a_at) / Fold change (ACY-1035/veh), C12orf56 (ProbeSet 11735607_a_at) / Fold change (Aza/veh), FGFR1OP (ProbeSet 11751329_s_at) / Fold change (ACY-1035/veh), FGFR1OP (ProbeSet 11751329_s_at) / Fold change (Aza/veh), VPS36 (ProbeSet 11739960_a_at) / Fold change (ACY-1035/veh), VPS36 (ProbeSet 11739960_a_at) / RFU SYPL1 (11715823_x_at) / Fold change /veh SYPL1 (11715823_x_at) / RFU IGFBP7 (11715501_s_at) / Fold change /veh IGFBP7 (11715501_s_at) / RFU REEP3 (11722064_at) / Fold change /veh REEP3 (11722064_at) / RFU IGLL1 (11728026_x_at) / Fold change /veh IGLL1 (11728026_x_at): dose or concentration left out as unconfirmed
Details: ProbeSet 11728676_at; LIST B

Nc1ccc(-c2cccs2)cc1NC(=O)c1ccc2c(c1)cc(C1CC1)n2CCN1CCOCC1 [ACY-1035]
RFU, MED14: 202.11 RFU
